“And” between values parts separate entries of the source, which are not always exact repeats. Equal entries are not always repeated.
System: brown planthoppers, Nilaparvata lugens
Experiment: Field efficacy on brown planthopper in transplanted rice (small-plot trials A-D)
Assay type: in vivo
Conditions: Sulfoxaflor 50 g/ha, Buprofezin 100 g/ha, mixture 50 + 100 g/ha
Protocol: Applications were made to transplanted rice, Oryza sativa, using small-plot efficacy methods. Chemicals were diluted in water and all treatments were applied using a backpack sprayer calibrated to deliver 500 liters of spray solution per hectare. Experimental plots measured 5 by 10 meters and each treatment was replicated three times in each trial. At the specified intervals after treatment, brown planthoppers, Nilaparvata lugens, were counted in 10 randomly selected hills per plot. Data were transformed to percent control relative to the untreated plots, then subjected to analysis of variance, and means were separated using Tukey's HSD (p=0.1). Expected control was calculated using the method of Colby and compared to observed control. See the Table Section for the results of the Field Trials.

[1] = Trial A, 1 DAT, relative to untreated plots

CC(C)N1C(=O)N(c2ccccc2)CS/C1=N\C(C)(C)C [Buprofezin]
% Control [1]: 34.9 a % and 34.9% | % Control (Trial A, 3 DAT): 72.4 b % and 72.4% | % Control (Trial A, 7 DAT): 72.4 b % and 72.4% | % Control (Trial A, 10 DAT): 49.4 b % and 49.4% | % Control (Trial A, 15 DAT): 49.0 b % and 49.0% | % Control (Trial B, 1 DAT): 24.5 a % and 24.5% | % Control (Trial B, 3 DAT): 73.0 b % and 73.0% | % Control (Trial B, 7 DAT): 80.2 b % and 80.2% | % Control (Trial B, 10 DAT): 63.2 b % and 63.2% | % Control (Trial B, 15 DAT): 67.7 b % and 67.7% | % Control (Trial C, 1 DAT): 31.2 ab % and 31.2% | % Control (Trial C, 3 DAT): 63.2 b % and 63.2% | % Control (Trial C, 7 DAT): 61.2 b % and 61.2% | % Control (Trial C, 10 DAT): 31.2 b % and 31.2% | % Control (Trial C, 15 DAT): 47.8 b % and 47.8% | % Control (Trial D, 1 DAT): 78.2 b % and 78.2% | % Control (Trial D, 7 DAT): 66.0 b % and 66.0% | % Control (Trial D, 10 DAT): 34.0 c % and 34.0% | % Control (Trial D, 15 DAT): 47.6 b % and 47.6%

CC(c1ccc(C(F)(F)F)nc1)S(C)(=O)=NC#N (centres unmarked) [Sulfoxaflor]
% Control [1]: 11.2 b % and 11.2% | % Control (Trial A, 3 DAT): 43.5 c % and 43.5% | % Control (Trial A, 7 DAT): 32.8 c % and 32.8% | % Control (Trial A, 10 DAT): 6.8 c % and 6.9% | % Control (Trial A, 15 DAT): 19.3 c % and 19.3% | % Control (Trial B, 1 DAT): 29.4 a % and 29.4% | % Control (Trial B, 3 DAT): 63.6 b % and 63.6% | % Control (Trial B, 7 DAT): 62.8 c % and 62.8% | % Control (Trial B, 10 DAT): 48.8 b % and 48.8% | % Control (Trial B, 15 DAT): 50.3 c % and 50.3% | % Control (Trial C, 1 DAT): 13.5 bc % and 13.5% | % Control (Trial C, 3 DAT): 42.4 c % and 42.2% | % Control (Trial C, 7 DAT): 57.9 b % and 57.9% | % Control (Trial C, 10 DAT): 9.6 b % and 9.6% | % Control (Trial C, 15 DAT): 30.1 c % and 30.1% | % Control (Trial D, 1 DAT): 71.4 b % and 71.4% | % Control (Trial D, 7 DAT): 72.9 b % and 72.9% | % Control (Trial D, 10 DAT): 57.5 b % and 57.5% | % Control (Trial D, 15 DAT): 51.9 b % and 51.9%

— US20120283099A1, “CONTROLLING PLANTHOPPERS” (priority 2011, published 2012)
